Like-named read-outs stand apart in the source and are kept apart here.
Test system: Lung cancer cell line NCI-H358 containing KRas G12C mutation
Test: Assay for cell proliferation (Cell-titer Glo, 5 days)
Format: cell-based, human
Details: for IC50: NCI-H358, 5 days, Cell-titer Glo, read-out: IC50 (nM), Inhibition of NCI-H358 Cell Proliferation
Experimental: One hundred fifty microliter (150 μL) of media containing 2000 cells per well were seeded into each well of a 96-well culture plate and left to attach overnight in a 37° C. incubator with 5% CO2. Diluted compounds of 0.75 μL for each well were added by liquid handler at a final concentration of 0.5% DMSO. Cells were treated for 5 days in the incubator. Cell-titer Glo (CTG) kit (Promega) was used to assess cell proliferation. Of note, 120 μL of CTG reagent was added to each well and incubated at RT for 10 minutes.

IC50 [nM] | Compound | further results
16.2 | C=CC(=O)N1CCN(c2nc(=O)n(-c3c(C)cc4c(ncn4C)c3C(C)C)c3nc(-c4c(N)cccc4F)c(Cl)cc23)[C@@H](C)C1 (atropisomer, axis not shown) [Compound 151] | –
– | C=CC(=O)N1C[C@H](C)N(c2nc(=O)n(-c3c(F)cc4c(ncn4C)c3C3CC3)c3nc(-c4c(N)cccc4F)c(F)cc23)C[C@H]1C (atropisomer, axis not shown) [Compound 179] | IC50 (Homo sapiens, NCI-H358, 120 h): 386 nM
38 | C=CC(=O)N1CCN(c2nc(=O)n(-c3c(C)cc4c(ncn4C)c3C(C)C)c3nc(-c4ccccc4F)c(Cl)cc23)[C@@H](C)C1 (single isomer, unassigned) [Compound 141] | –
2.2 | C=CC(=O)N1CCN(c2nc(=O)n(-c3c(C)cc4c(ncn4C)c3C(C)C)c3nc(-c4ccccc4F)c(Cl)cc23)[C@@H](C)C1 (single isomer, unassigned) [Compound 142] | –
1300 | C=CC(=O)N1CCN(c2nc(=O)n(-c3c(F)cc4c(ncn4C)c3C(C)C)c3nc(-c4c(N)cccc4F)c(F)cc23)[C@@H](C)C1 (single isomer, unassigned) [Compound 143] | –
2.5 | C=CC(=O)N1CCN(c2nc(=O)n(-c3c(F)cc4c(ncn4C)c3C(C)C)c3nc(-c4c(N)cccc4F)c(F)cc23)[C@@H](C)C1 (single isomer, unassigned) [Compound 144] | –
2.7 | C=CC(=O)N1CCN(c2nc(=O)n(-c3c(C)cc4c(ncn4C)c3C(C)C)c3nc(-c4c(N)cccc4F)c(F)cc23)[C@@H](C)C1 (single isomer, unassigned) [Compound 147] | –
78.6 | C=CC(=O)N1CCN(c2nc(=O)n(-c3c(C)cc4c(ncn4C)c3C(C)C)c3nc(-c4c(N)cccc4F)c(F)cc23)[C@@H](C)C1 (single isomer, unassigned) [Compound 148] | –
12.8 | C=CC(=O)N1C[C@H](C)N(c2nc(=O)n(-c3c(C)cc4c(ncn4C)c3C(C)C)c3nc(-c4c(O)cccc4F)c(Cl)cc23)C[C@H]1C (single isomer, unassigned) [Compound 149] | –
1.1 | C=CC(=O)N1C[C@H](C)N(c2nc(=O)n(-c3c(C)cc4c(ncn4C)c3C(C)C)c3nc(-c4c(O)cccc4F)c(Cl)cc23)C[C@H]1C (single isomer, unassigned) [Compound 150] | –
172 | C=CC(=O)N1C[C@H](C)N(c2nc(=O)n(-c3c(C)cc4c(ncn4C)c3C(C)C)c3nc(-c4c(N)cccc4F)c(F)cc23)C[C@H]1C (single isomer, unassigned) [Compound 153] | –
1.4 | C=CC(=O)N1C[C@H](C)N(c2nc(=O)n(-c3c(C)cc4c(ncn4C)c3C(C)C)c3nc(-c4c(N)cccc4F)c(F)cc23)C[C@H]1C (single isomer, unassigned) [Compound 154] | –
60 | C=CC(=O)N1CCN(c2nc(=O)n(-c3c(C)cc4c(ncn4C)c3C(C)C)c3nc(-c4c(O)cccc4F)c(F)cc23)[C@@H](C)C1 (single isomer, unassigned) [Compound 155] | –
6.9 | C=CC(=O)N1CCN(c2nc(=O)n(-c3c(C)cc4c(ncn4C)c3C(C)C)c3nc(-c4c(O)cccc4F)c(F)cc23)[C@@H](C)C1 (single isomer, unassigned) [Compound 156] | –
64.2 | C=CC(=O)N1C[C@H](C)N(c2nc(=O)n(-c3c(C)cc4c(ncn4C)c3C(C)C)c3nc(-c4ccccc4F)c(Cl)cc23)C[C@H]1C (single isomer, unassigned) [Compound 159] | –
1.3 | C=CC(=O)N1C[C@H](C)N(c2nc(=O)n(-c3c(C)cc4c(ncn4C)c3C(C)C)c3nc(-c4ccccc4F)c(Cl)cc23)C[C@H]1C (single isomer, unassigned) [Compound 160] | –
32.4 | C=CC(=O)N1C[C@H](C)N(c2nc(=O)n(-c3c(C)cc4c(ncn4C)c3C(C)C)c3nc(-c4c(N)cccc4F)c(Cl)cc23)C[C@H]1C (single isomer, unassigned) [Compound 161] | –
0.5 | C=CC(=O)N1C[C@H](C)N(c2nc(=O)n(-c3c(C)cc4c(ncn4C)c3C(C)C)c3nc(-c4c(N)cccc4F)c(Cl)cc23)C[C@H]1C (single isomer, unassigned) [Compound 162] | –
– | C=CC(=O)N1CCN(c2nc(=O)n(-c3c(C)nc4c(ncn4C)c3C(C)C)c3nc(-c4c(O)cccc4F)c(F)cc23)[C@@H](C)C1 (single isomer, unassigned) [Compound 163] | IC50 (Homo sapiens, NCI-H358, 120 h): 44.2 nM
> 1000 | C=CC(=O)N1C[C@H](C)N(c2nc(=O)n(-c3c(C)nc4c(ncn4C)c3C(C)C)c3nc(-c4c(N)cccc4F)c(F)cc23)C[C@H]1C (single isomer, unassigned) [Compound 164] | –

IC50 [nM] | Compound | further results
157 | C=CC(=O)N1C[C@H](C)N(c2nc(=O)n(-c3c(C)nc4c(ncn4C)c3C(C)C)c3nc(-c4c(N)cccc4F)c(F)cc23)C[C@H]1C (single isomer, unassigned) [Compound 165] | –
0.8 | C=CC(=O)N1C[C@H](C)N(c2nc(=O)n(-c3c(C)nc4c(ncn4C)c3C(C)C)c3nc(-c4ccccc4F)c(Cl)cc23)C[C@H]1C (single isomer, unassigned) [Compound 167] | –
20.3 | C=CC(=O)N1C[C@H](C)N(c2nc(=O)n(-c3c(C)nc4c(ncn4C)c3C(C)C)c3nc(-c4ccccc4F)c(Cl)cc23)C[C@H]1C (single isomer, unassigned) [Compound 168] | –
119 | C=CC(=O)N1C[C@H](C)N(c2nc(=O)n(-c3c(F)cc4c(ncn4C)c3C(C)C)c3nc(-c4ccccc4F)c(Cl)cc23)C[C@H]1C (single isomer, unassigned) [Compound 169] | –
1 | C=CC(=O)N1C[C@H](C)N(c2nc(=O)n(-c3c(F)cc4c(ncn4C)c3C(C)C)c3nc(-c4ccccc4F)c(Cl)cc23)C[C@H]1C (single isomer, unassigned) [Compound 170] | –
15.6 | C=CC(=O)N1C[C@H](C)N(c2nc(=O)n(-c3c(C)nc4c(ncn4C)c3C(C)C)c3nc(-c4c(O)cccc4F)c(Cl)cc23)C[C@H]1C (single isomer, unassigned) [Compound 171] | –
1.2 | C=CC(=O)N1C[C@H](C)N(c2nc(=O)n(-c3c(C)nc4c(ncn4C)c3C(C)C)c3nc(-c4c(O)cccc4F)c(Cl)cc23)C[C@H]1C (single isomer, unassigned) [Compound 172] | –
23.5 | C=CC(=O)N1C[C@H](C)N(c2nc(=O)n(-c3c(F)cc4c(ncn4C)c3C(C)C)c3nc(-c4c(N)cccc4F)c(Cl)cc23)C[C@H]1C (single isomer, unassigned) [Compound 173] | –
0.2 | C=CC(=O)N1C[C@H](C)N(c2nc(=O)n(-c3c(F)cc4c(ncn4C)c3C(C)C)c3nc(-c4c(N)cccc4F)c(Cl)cc23)C[C@H]1C (single isomer, unassigned) [Compound 174] | –
16.1 | C=CC(=O)N1C[C@H](C)N(c2nc(=O)n(-c3c(C)nc4c(ncn4C)c3C(C)C)c3nc(-c4c(N)cccc4F)c(Cl)cc23)C[C@H]1C (single isomer, unassigned) [Compound 175] | –
0.5 | C=CC(=O)N1C[C@H](C)N(c2nc(=O)n(-c3c(C)nc4c(ncn4C)c3C(C)C)c3nc(-c4c(N)cccc4F)c(Cl)cc23)C[C@H]1C (single isomer, unassigned) [Compound 176] | –
73.7 | C=CC(=O)N1C[C@H](C)N(c2nc(=O)n(-c3c(F)cc4c(ncn4C)c3C3CC3)c3nc(-c4c(N)cccc4F)c(Cl)cc23)C[C@H]1C (single isomer, unassigned) [Compound 177] | –
0.9 | C=CC(=O)N1C[C@H](C)N(c2nc(=O)n(-c3c(F)cc4c(ncn4C)c3C3CC3)c3nc(-c4c(N)cccc4F)c(Cl)cc23)C[C@H]1C (single isomer, unassigned) [Compound 178] | –
1.7 | C=CC(=O)N1C[C@H](C)N(c2nc(=O)n(-c3c(C(C)C)nc4c(ncn4C)c3C)c3nc(-c4ccccc4F)c(Cl)cc23)C[C@H]1C (single isomer, unassigned) [Compound 182] | –
27.4 | C=CC(=O)N1C[C@H](C)N(c2nc(=O)n(-c3c(C(C)C)nc4c(ncn4C)c3C)c3nc(-c4c(N)cccc4F)c(Cl)cc23)C[C@H]1C (single isomer, unassigned) [Compound 183] | –
0.2 | C=CC(=O)N1C[C@H](C)N(c2nc(=O)n(-c3c(C(C)C)nc4c(ncn4C)c3C)c3nc(-c4c(N)cccc4F)c(Cl)cc23)C[C@H]1C (single isomer, unassigned) [Compound 184] | –
21.7 | C=CC(=O)N1C[C@H](C)N(c2nc(=O)n(-c3c(C(C)C)nc4c(ncn4C)c3C)c3nc(-c4c(O)cccc4F)c(Cl)cc23)C[C@H]1C (single isomer, unassigned) [Compound 185] | –
0.9 | C=CC(=O)N1C[C@H](C)N(c2nc(=O)n(-c3c(C(C)C)nc4c(ncn4C)c3C)c3nc(-c4c(O)cccc4F)c(Cl)cc23)C[C@H]1C (single isomer, unassigned) [Compound 186] | –
– | C=CC(=O)N1C[C@H](C)N(c2nc(=O)n(-c3c(C(C)C)ncnc3C(C)C)c3nc(-c4c(N)cccc4F)c(F)cc23)C[C@H]1C [4-((2S,5R)-4-acryloyl-2,5-dimethylpiperazin-1-yl)-7-(2-amino-6-fluorophenyl)-1-(4,6-diisopropylpyrimidin-5-yl)-6-fluoropyrido[2,3-d]pyrimidin-2(1H)-one] | IC50 (Homo sapiens, NCI-H358, 120 h): 5.3 nM
– | C=CC(=O)N1C[C@H](C)N(c2nc(=O)n(-c3c(C(C)C)ncnc3C(C)C)c3nc(-c4c(N)cccc4F)c(Cl)cc23)C[C@H]1C [4-((2S,5R)-4-acryloyl-2,5-dimethylpiperazin-1-yl)-7-(2-amino-6-fluorophenyl)-6-chloro-1-(4,6-diisopropylpyrimidin-5-yl)pyrido[2,3-d]pyrimidin-2(1H)-one] | IC50 (Homo sapiens, NCI-H358, 120 h): 1.6 nM; fold more potent: 2-amino-6-fluoro-phenyl compound vs. corresponding 2-fluoro-phenyl compound at R8 (NCI-H358 IC50 comparison): only slightly more potent
